Data on 15 molecules can be found in paper PMC9130538, “Amino acids in transmembrane helix 1 confer major functional differences between human and mouse orthologs of the polyspecific membrane transporter OCT1” (The Journal of Biological Chemistry, 2022).

A word on the Km: it is the concentration of substrate that gives half-maximal velocity.

Series [1] has as its target T1, human OCT1 (Homo sapiens, UniProt O15245).
T1 sequence (O15245 1-554): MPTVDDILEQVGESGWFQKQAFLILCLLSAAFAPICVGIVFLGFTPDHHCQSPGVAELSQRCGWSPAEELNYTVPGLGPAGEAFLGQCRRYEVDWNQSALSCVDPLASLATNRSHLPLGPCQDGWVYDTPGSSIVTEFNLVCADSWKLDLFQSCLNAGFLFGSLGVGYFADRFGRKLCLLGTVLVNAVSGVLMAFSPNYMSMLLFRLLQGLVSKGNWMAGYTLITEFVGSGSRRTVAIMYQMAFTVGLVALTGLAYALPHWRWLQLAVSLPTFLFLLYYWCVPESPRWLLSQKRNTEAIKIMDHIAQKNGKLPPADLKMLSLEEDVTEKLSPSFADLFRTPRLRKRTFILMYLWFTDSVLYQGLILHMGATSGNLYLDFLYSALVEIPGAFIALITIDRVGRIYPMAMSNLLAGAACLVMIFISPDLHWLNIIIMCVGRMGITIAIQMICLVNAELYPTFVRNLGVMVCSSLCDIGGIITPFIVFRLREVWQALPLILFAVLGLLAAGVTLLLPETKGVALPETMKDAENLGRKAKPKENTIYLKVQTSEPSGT
The series can be described thus: Cellular uptake by HEK293 cells overexpressing human OCT1 (wildtype). Particulars: for transport by human OCT1 (saturability): concentration-dependent uptake, stably transfected HEK293, 2 min. Here is the method: (§1) Generation and characterization of these cell lines has been described in detail before ([34], [48], [49]). Cells were cultured in Dulbecco’s Modified Eagle’s Medium supplemented with 10% fetal bovine serum, 100 U/ml penicillin, and 100 μg/ml streptomycin at 37 °C and 5% CO2 and were passaged twice a week.
(§2) At 48 h prior to the experiment, 6 × 10^5 cells were seeded per well in 12-well plates. When using transiently transfected cells, 5 × 10^5 T-REx-293 cells (Life Technologies) were seeded per well in 12-well plates 72 h prior to the experiment, and they were transfected 24 h later as described previously. Twelve-well plates were precoated with poly-D-lysine.
(§3) Cellular uptake experiments were performed at 37 °C and pH 7.4 using HBSS supplemented with 10 mM Hepes (in the following referred to as HBSS+). Cells were washed with 1 ml prewarmed (37 °C) HBSS+, and the uptake was initiated by adding 400 μl of prewarmed HBSS+ containing the substrate. Uptake was allowed for exactly 2 min and afterward stopped by adding 2 ml ice-cold HBSS+. Cells were washed twice with 2 ml ice-cold HBSS+ and lysed with 80% acetonitrile supplemented with internal standard, 0.1 N NaOH/0.1% SDS, or radioimmunoprecipitation buffer for LC–MS/MS, liquid scintillation counting, or fluorescence spectroscopy detection, respectively. Intracellular substrate concentrations were measured as described in the following and were then normalized to the amount of total protein in the samples as measured using the bicinchoninic acid assay ([51]).
(§4) For LC–MS/MS quantification of intracellular substrate concentrations, the cell lysate was centrifuged at 16,000g for 15 min, and 350 μl of supernatant was evaporated to dryness under nitrogen flow at 40 °C. The sample was reconstituted with 200 μl 0.1% formic acid, and between 2 and 30 μl were injected into the LC–MS/MS system (Table S1).
(§5) An API4000 QTRAP tandem mass spectrometer with ESI interface (AB SCIEX) was used, coupled to a Shimadzu Nexera X2 UHPLC system with LC 30AD pumps and SiL 30AC autosampler (Shimadzu).
(§6) Intracellular concentrations of radioactively labeled substrates MPP^+ and TEA^+ were quantified using liquid scintillation counting. To this end, 400 μl cell lysate was transferred into a 20 ml scintillation vial, 9 ml Aquasafe 500 Plus liquid scintillator (both Zinsser Analytics) was added, and the sample was measured in the Scintillation Counter LS6500 (Beckman Coulter).
(§7) For both analyses, SPSS Statistics, version 28 (SPSS, Inc, IBM) was used.

The target in series [2] is T2, mouse Oct1 (Mus musculus, UniProt O08966).
T2 sequence (O08966 1-556): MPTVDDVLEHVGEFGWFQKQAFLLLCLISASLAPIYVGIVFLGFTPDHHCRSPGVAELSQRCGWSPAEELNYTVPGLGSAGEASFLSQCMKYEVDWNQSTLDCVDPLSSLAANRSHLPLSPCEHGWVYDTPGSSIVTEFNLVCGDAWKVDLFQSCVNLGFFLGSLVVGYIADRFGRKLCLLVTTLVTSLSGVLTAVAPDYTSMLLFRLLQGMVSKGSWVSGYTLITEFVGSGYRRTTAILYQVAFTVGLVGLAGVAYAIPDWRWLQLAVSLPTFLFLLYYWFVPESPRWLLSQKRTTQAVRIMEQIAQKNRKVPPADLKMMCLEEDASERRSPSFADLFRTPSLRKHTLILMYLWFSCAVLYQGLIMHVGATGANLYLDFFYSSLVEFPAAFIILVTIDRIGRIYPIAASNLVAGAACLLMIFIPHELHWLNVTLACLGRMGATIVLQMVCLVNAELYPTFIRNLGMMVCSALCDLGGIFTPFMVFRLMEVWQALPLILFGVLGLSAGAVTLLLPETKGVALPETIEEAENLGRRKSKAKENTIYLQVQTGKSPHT
The series can be described thus: Cellular uptake by HEK293 cells overexpressing mouse Oct1 (wildtype). Here is the method:
as §1, §2, §3, §4, §5, §6, §7

Series [3] deals with T1, human OCT1. More on the design: expressed in transfected cells; method as in PMID 33037045, PMID 34040533. Particulars: HEK293 stably transfected, 2 min, data previously published, ref [34], [35], cited from earlier work; for Km: read-out: KM ± SD, hOCT1.
For series [4], the target named is T2, mouse Oct1. Also noted: expressed in transfected cells; method as in PMID 33037045, PMID 34040533. Particulars: HEK293 stably transfected, 2 min, data previously published, ref [34], [35], cited from earlier work; for Km: read-out: KM ± SD, mOct1.
The mark [5] stands for this setting: HEK293 stably transfected, 2 min uptake, 37 °C, pH 7.4, OCT1-mediated uptake.
Where [6] appears, read: human versus mouse OCT1, stably transfected HEK293.
[7] abbreviates: read-out: KM ± SD, hOCT1, HEK293 stably transfected, 2 min uptake, 37 °C, pH 7.4.
Setting [8] is: ASP^+ by fluorescence spectroscopy, HEK293 stably transfected, 2 min.

“Also recorded” adds a separate entry of the source. Where two headings read alike, the source gives them in different places.

As to `COc1ccc(CC(C)NCC(O)c2ccc(O)c(NC=O)c2)cc1` (centres unmarked) [Formoterol], the “vmax ± SD, hOCT1” value in series [1] (setting [5]) is 434 ± 111 pmol × min^−1 × mg protein^−1. In addition, the “vmax ± SD, mOct1” value in series [2] (setting [5]) was 1458 ± 317 pmol × min^−1 × mg protein^−1.

As to `Cc1ncc(C[n+]2csc(CCO)c2C)c(N)n1` [Thiamine], in series [3], the “vmax ± SD, hOCT1” value was 8261 ± 3720 pmol × min^−1 × mg protein^−1 and the Km was 1060 ± 341 µM. Also, in series [4], the “vmax ± SD, mOct1” value is 3712 ± 1031 pmol × min^−1 × mg protein^−1 and the Michaelis constant (Km) was 143 ± 96.3 µM.

Turning to `CC(CCc1ccc(O)cc1)NCC(O)c1ccc(O)cc1` (centres unmarked) [Ractopamine], the “fold higher affinity (KM) of human than of mouse OCT1” value in series [1] (setting [6]) is “comparable between human and mouse OCT1”.

As to `CC[N+](CC)(CC)CC` [TEA^+, tetraethylammonium], the “CLint ± SD, hOCT1” value in series [1] is recorded as 6.31 ± 2.45 μl × min^−1 × mg protein^−1. In series [1] (pH 7.4), the Michaelis constant (Km) was 749 ± 438 µM and the “vmax ± SD, hOCT1” value is 4207 ± 1511 pmol × min^−1 × mg protein^−1. For the same molecule, in series [2], the “CLint ± SD, mOct1” value is recorded as 27.6 ± 9.72 μl × min^−1 × mg protein^−1. In series [2] (pH 7.4), the Km came to 305 ± 141 µM and the “vmax ± SD, mOct1” value was 7764 ± 2883 pmol × min^−1 × mg protein^−1.

Take `CN(C)C(=N)N=C(N)N` [Metformin]: in series [3], the “vmax ± SD, hOCT1” value is 14,703 ± 4346 pmol × min^−1 × mg protein^−1 and the Km is 2200 ± 1150 µM. In addition, in series [4], the “vmax ± SD, mOct1” value is listed as 17,496 ± 7097 pmol × min^−1 × mg protein^−1 and the Km is 491 ± 155 µM.

In the case of `CC(C)NCC(O)c1cc(O)cc(O)c1` (centres unmarked) [Orciprenaline], in series [1] (setting [6]), the “fold lower affinity (KM) of human OCT1 than mouse Oct1 (higher affinity of mouse Oct1)” value is “more than sixfold higher affinity of mouse Oct1”.

For the molecule `CC(C)C(=O)O[C@H](CC(=O)[O-])C[N+](C)(C)C` [IBC, isobutyryl-L-carnitine], the “transport by human OCT1 (saturability)” value in series [1] is on record as “not transported at all”; in series [1] (listed as isobutyryl-L-carnitine (IBC)) it was “lacked any saturable transport”. The “vmax ± SD, mOct1” value in series [4] is on record as 8366 ± 1705 pmol × min^−1 × mg protein^−1. Also, in series [4], the Michaelis-Menten constant (Km) is 1380 ± 356 µM.

On to `C[N@+]1(CC2CC2)CC[C@]23c4c5ccc(O)c4O[C@H]2C(=O)CC[C@@]3(O)[C@H]1C5` [Methylnaltrexone], for which, in series [2] (setting [5]), the “vmax ± SD, mOct1” value was 414 ± 130 pmol × min^−1 × mg protein^−1.

For `NC[C@H](O)c1ccc(O)c(O)c1` [Noradrenaline], the “transport by human OCT1 (saturability)” value in series [1] was “lacked any saturable transport”.

With `C[N+]1(C)[C@@H]2C[C@@H](OC(=O)C(O)(c3cccs3)c3cccs3)C[C@H]1[C@@H]1O[C@@H]12` [Tiotropium], the Km in series [1] (human, pH 7.4) turned out to be 7.82 ± 1.77 µM; in series [2] (mouse, pH 7.4), 1.47 ± 0.12 µM. The “vmax ± SD, hOCT1” value in series [1] (pH 7.4) is 836 ± 322 pmol × min^−1 × mg protein^−1. Moreover, the “vmax ± SD, mOct1” value in series [2] (pH 7.4) is reported as 285 ± 87.1 pmol × min^−1 × mg protein^−1.

In the case of `C[n+]1ccc(-c2ccccc2)cc1` [MPP^+, 1-methyl-4-phenylpyridinium], in series [1] (setting [5]), the “vmax ± SD, hOCT1” value is reported as 3112 ± 419 pmol × min^−1 × mg protein^−1. Moreover, the Km in series [1] (setting [7]) was found to be 71.1 ± 17.3 µM. In series [2], the “CLint ± SD, mOct1” value was 80.8 ± 12.1 μl × min^−1 × mg protein^−1. Moreover, in series [2] (pH 7.4), the Km came out at 24.4 ± 7.95 µM and the “vmax ± SD, mOct1” value is reported as 1910 ± 450 pmol × min^−1 × mg protein^−1.

For the molecule `CC(NCCc1ccc(O)cc1)C(O)c1ccc(O)cc1` (centres unmarked) [Ritodrine], the “fold higher affinity (KM) of human than of mouse OCT1” value in series [1] (setting [6]) is given as about 10 fold.

Turning to `[H]/N=C(/N)N/C(=N/[H])NCCc1ccccc1` [Phenformin], in series [1] (human, pH 7.4), the “CLint ± SD, hOCT1” value was 106 ± 22.8 μl × min^−1 × mg protein^−1. In series [2] (mouse, pH 7.4), the “CLint ± SD, mOct1” value is recorded as 143 ± 26.2 μl × min^−1 × mg protein^−1.

As for `CN(C)c1ccc(C=Cc2cc[n+](C)cc2)cc1` [ASP^+, 4-(4-(dimethylamino)styryl)-N-methylpyridinium], the “vmax ± SD, hOCT1” value in series [1] (setting [8]) was 361,671 ± 2974 RFU × min^−1 × mg protein^−1. The Michaelis-Menten constant (Km) in series [1] (setting [7]) stood at 63 ± 15.3 µM; in series [2] (read-out: KM ± SD, mOct1, HEK293 stably transfected, 2 min uptake, 37 °C, pH 7.4), 12.8 ± 2.97 µM. Moreover, in series [2] (setting [8]), the “vmax ± SD, mOct1” value is given as 53,802 ± 7155 RFU × min^−1 × mg protein^−1.

For `C[N+](C)(C)CCO` [Choline], in series [1], the “transport by human OCT1 (saturability)” value is “lacked any saturable transport; also recorded: not transported at all”.
